Seven compounds from article PMC9574050, “Design, synthesis, and insecticidal activity of a novel series of flupyrimin analogs bearing 1-aryl-1H-pyrazol-4-yl subunits” (Frontiers in Chemistry, 2022) can be followed below.

One may read the mortality as the percentage killed.

Holding throughout (format): in vivo
One data set has as its system Helicoverpa armigera. In words: Insecticidal activity against Helicoverpa armigera (soaking method). Conditions: Helicoverpa armigera, 48 h; 400 μg/mL; 2nd instar larvae; counted 2 days later; read-out: Mortality rate (%) H. armigera. The text has this:
(§1) Preparation of test agent. Dissolve accurately weighed tested compound in DMF to prepare 1% mother liquor, and then dilute it with distilled water containing 0.1% Tween-80 to corresponding concentrations for later use.
Insecticidal activity against Helicoverpa armigera. The soaking method was adopted ([Yang et al., 2022]). After soaking a proper amount of corn leaves for 10 s, they were placed in a plastic Petri dish with filter paper and dried naturally in the shade. Ten larvae of the 2nd instar H. armigera were attached to each dish and placed in an observation room at 26°C with light (16/8 h). The result was counted 2 days later, and the no-response insect body when it was lightly touched with a brush was regarded as dead. Each treatment was repeated 3 times, and DMF without the tested compound was used as a blank control.
(§2) The insecticidal activities of the test compounds against the abovementioned five insects were calculated by the following formula: P1=(K/N)×100, (1) P2=(Pt−P0)/(1−P0)×100, (2) where P1 is the mortality rate; K is the dead insect number; N is the total number of experimental insects; P2 is the corrected mortality rate; Pt is the mortality rate of treatment; P0 is the mortality rate of CK. If the mortality rate of CK is less than 5%, without the required correction, and if the mortality rate of CK is between 5 and 20%, P2 should be calculated according to formula II.

Data set [1] concerns honeybees (Apis mellifera). Briefly: Bee contact toxicity. The settings on record: for LD50 / Toxicity level / Mortality: Contact toxicity; for Mortality: 1 μL of 10 × 10^4 mg A.I./L per bee. As for the experimental part:
(§3) The test bees were Italian bees (Apis mellifera), and the newly born adult worker bees (<24 h) were selected for drug drip treatment. Weigh 50 mg of test substance FLP and fully dissolve it in DMSO to obtain 10 × 10^4 mg A.I./L of stock liquid medicine; dissolve B4 fully in DMSO and fix the volume to a 1-ml volumetric flask to obtain 11.6 × 10^4 mg A.I./L stock solution.
Contact toxicity. 10 × 10^4 mg A.I./L of mother liquor was used as the test liquid, and 1 μL of the solution containing the tested drug was dripped onto the back of the front chest of bees by a micro-dropper. Then, bees were put into a beekeeping box and cultured in dark conditions at a temperature of 30 ± 1°C and relative humidity of 50%, with a 50% sucrose solution as food for 48 h. Taking the solvent drip bees without the drug to be tested as the blank control, the treatment group and the control group were set up with three replicates, and 10 bees were used in each replicate.
(§4) Statistical analysis. Using the statistical software SPSS16.0, the LD50 value and 95% confidence limit of the half lethal dose of the sample to bees were obtained by regression statistical analysis with the probit analysis method.

The test system of a further data set is Chilo suppressalis. Briefly: Insecticidal activity against Chilo suppressalis (soaking method). The settings on record: 96 h, 400 μg/mL, 3rd instar larvae, counted 4 days later, read-out: Mortality rate (%) C. suppressalis.
From the text: as §1
Insecticidal activity against Chilo suppressalis ([Huang et al., 2022]). The soaking method was adopted. The Zizania latifolia slices were soaked in a tested solution for 10 s, then taken out, and placed in a plastic Petri dish with filter paper to naturally dry in the shade. […] The result was counted 4 days later, and the no-response insect body when it was lightly touched with a brush was regarded as dead. Each treatment was repeated three times, and DMF without the tested compound was used as a blank control.
as §2

For data set [2], the system named is honeybees (Apis mellifera). In words: Bee acute oral toxicity. The settings on record: for LD50 / Mortality / Toxicity level: Oral toxicity. As for the experimental part: as §3
Oral toxicity. Before the formal experiment, a pre-experiment was carried out. According to the formal experimental conditions, three to four dose groups were set at large intervals to observe the death of bees between 24 and 48 h and determine the linear range of the lethal effect of drugs on bees. According to the pre-test results, determine the concentration range of the formal test and set five to seven test dose groups. Starve bees for 2 h before being infected, and then eliminate bees that are dying or have abnormal behaviors; put 200 μL of test liquid medicine in the feeding tube, and after the liquid medicine is consumed (within 6 h), take out the feeder to measure the weight of the food that has not been consumed. Then, the bees were fed with sucrose solution without test samples. Cultivate in the dark. At the same time, feeding 50% sucrose solution as a blank control, the treatment group and the control group were set up with three replicates, and 20 bees were used in each replicate. According to the results of the pre-experiment, if the toxicity of the drug to bees is low, the upper limit dose of 100 μg a.i./bee is set for the limit test of bees, that is, when the tested substance reaches 100 μg a.i./bee, no bees die, so there is no need to continue the test. If the solubility of the test substance is less than 100 μg a. i./bee, the maximum solubility is adopted as the upper limit concentration. The test results were examined at 24 and 48 h, respectively, and the number of deaths and poisoning symptoms were recorded. The standard of death is touching the bee's body, and when it can't crawl, it is judged as death.
as §4

The test system of the next data set is Nilaparvata lugens. Briefly: Insecticidal activity against Nilaparvata lugens (Potter spray tower). The settings on record: 24 h, 400 μg/mL, 3rd instar nymphae, 1 day after treatment, read-out: Mortality rate (%) N. lugens.
From the text: as §1
Insecticidal activity against Nilaparvata lugens ([Ghareeb et al., 2021]). The seedlings with two leaves and one heart were placed in a Petri dish with a bottom diameter of 3 cm and covered with white sand. After the 3rd instar nymphae of N. lugens were stunned by CO2, about 15 nymphae were received in each dish, and then 2.5 ml of the tested agent was sprayed with Potter spray tower. The mortality of N. lugens was investigated 1 day after the treatment. Each treatment was repeated three times, and DMF without the tested compound was used as a blank control.
as §2

Another data set concerns Plutella xylostella. Briefly: Insecticidal activity against Plutella xylostella (soaking method). Conditions: Plutella xylostella, 48 h, 2nd instar larvae, counted 2 days later, read-out: Mortality rate (%) P. xylostella; for mortality at 100 µg/mL: 100 μg/mL; for mortality at 400 µg/mL: 400 μg/mL.
From the text: as §1
Insecticidal activity against Plutella xylostella ([Yang et al., 2021]). The soaking method was adopted. After soaking a proper amount of radish leaves for 10 s, it was placed in a plastic Petri dish with filter paper and dried naturally in the shade. Each dish was inoculated with 10 2nd instar P. xylostella larvae and placed in an observation room at 22°C with light (16/8 h). The result was counted 2 days later, and the no-response insect body when it was lightly touched with a brush was regarded as dead. Each treatment was repeated three times, and DMF without the tested compound was used as a blank control.
as §2

The next data set concerns Aphis craccivora. Briefly: Insecticidal activity against Aphis craccivora (Potter spray tower). The settings on record: 400 μg/mL, counted 24 h later, read-out: Mortality rate (%) A. craccivora. As for the experimental part: as §1
Insecticidal activity against Aphis craccivora ([Liu et al., 2022]). About 30 nymphs of alfalfa aphid were placed on a horsebean leaf dish, and then 2.5 ml of the tested agent was sprayed with Potter spray tower. After treatment, they were cultured in an observation room at 20–22°C. The result was counted 24 h later, and the no-response insect body when it was lightly touched with tweezers was regarded as dead. Each treatment was repeated three times, and DMF without the tested compound was used as a blank control.
as §2

SMILES strings stand for the structures.

Regarding `COCC(=O)/N=c1\ccccn1Cc1cnn(-c2ccc(Cl)cc2)c1C(F)(F)F` [Compound B4, (E)-N-(1-((1-(4-chlorophenyl)-5-(trifluoromethyl)-1H-pyrazol-4-yl)methyl)pyridin-2(1H)-ylidene)-2-methoxyacetamide], the mortality at 400 µg/mL with Helicoverpa armigera is 0%; in the data set on Chilo suppressalis, 0%; in the data set on Nilaparvata lugens, 0%; in the data set with Plutella xylostella, 100%; with Aphis craccivora, 0%. The LD50 in data set [1] (24 h), in data set [1] (48 h), in data set [2] (24 h) and in data set [2] (48 h) was more than 11.0 μg a.i./bee in each case. For the same compound, the Toxicity level result in data set [1] (24 h), in data set [1] (48 h), in data set [2] (24 h) and in data set [2] (48 h) was “Low toxicity” throughout. Also, the Mortality in data set [1] (24 h) is recorded as 3; in data set [1] (48 h) it was 3; in data set [2] (24 h) it was 15; in data set [2] (48 h), 17. For the same compound, the LD50 contact toxicity in data set [1] (adult bees, time not stated) is given as more than 11.0 μg a.i./bee. The compound also yielded an LD50 oral toxicity in data set [2] (adult bees, time not stated) of more than 11.0 μg a.i./bee. The mortality at 100 µg/mL with Plutella xylostella is 96.7%.
As for `Cn1cc(C(=O)/N=c2\ccccn2Cc2cnn(-c3ccccc3)c2C(F)(F)F)c(C(F)F)n1` [Compound D1, (E)-3-(difluoromethyl)-1-methyl-N-(1-((1-phenyl-5-(trifluoromethyl)-1H-pyrazol-4-yl)methyl)pyridin-2(1H)-ylidene)-1H-pyrazole-4-carboxamide], the mortality at 400 µg/mL with Helicoverpa armigera is 0%; in the data set on Chilo suppressalis, 0%; with Nilaparvata lugens, 0%; in the data set on Plutella xylostella it was 46.7%; in the data set with Aphis craccivora, 0%.
For the compound `O=C(/N=c1\ccccn1Cc1cnn(-c2cccc(F)c2)c1C(F)F)C(F)(F)F` [Compound A7, (E)-N-(1-((5-(difluoromethyl)-1-(3-fluorophenyl)-1H-pyrazol-4-yl)methyl)pyridin-2(1H)-ylidene)-2,2,2-trifluoroacetamide], the mortality at 400 µg/mL with Helicoverpa armigera came out at 0%; in the data set with Chilo suppressalis, 0%; with Nilaparvata lugens, 0%; in the data set with Plutella xylostella, 63.3%; in the data set on Aphis craccivora it was 0%.
Take `O=C(/N=c1\ccccn1Cc1cnn(-c2ccc(Cl)cc2)c1C(F)(F)F)C(F)(F)C(F)(F)F` [Compound C4, (E)-N-(1-((1-(4-chlorophenyl)-5-(trifluoromethyl)-1H-pyrazol-4-yl)methyl)pyridin-2(1H)-ylidene)-2,2,3,3,3-pentafluoropropanamide]: the mortality at 400 µg/mL was found to be 0% in the data set on Helicoverpa armigera; 0% in the data set on Chilo suppressalis; 0% in the data set with Nilaparvata lugens; 73.3% in the data set on Plutella xylostella; 0% with Aphis craccivora.
In the case of `O=C(/N=c1\ccccn1Cc1cnn(-c2ccccc2)c1C(F)(F)F)C(F)(F)C(F)(F)F` [Compound C1, (E)-2,2,3,3,3-pentafluoro-N-(1-((1-phenyl-5-(trifluoromethyl)-1H-pyrazol-4-yl)methyl)pyridin-2(1H)-ylidene)propanamide], the mortality at 400 µg/mL with Helicoverpa armigera, in the data set on Chilo suppressalis, in the data set with Nilaparvata lugens, in the data set on Plutella xylostella and in the data set with Aphis craccivora was 0% throughout.
For `O=C(/N=c1\ccccn1Cc1cnn(-c2ccc(C(F)(F)F)cc2)c1C(F)(F)F)C(F)(F)F` [Compound A5, (E)-2,2,2-trifluoro-N-(1-((5-(trifluoromethyl)-1-(4-(trifluoromethyl)phenyl)-1H-pyrazol-4-yl)methyl)pyridin-2(1H)-ylidene)acetamide], the mortality at 400 µg/mL came out at 0% in the data set on Helicoverpa armigera; 0% in the data set on Chilo suppressalis; 0% with Nilaparvata lugens; 73.3% in the data set with Plutella xylostella; 0% in the data set on Aphis craccivora.
Consider `COCC(=O)/N=c1\ccccn1Cc1cnn(-c2cccc(F)c2)c1C(F)(F)F` [Compound B3, (E)-N-(1-((1-(3-fluorophenyl)-5-(trifluoromethyl)-1H-pyrazol-4-yl)methyl)pyridin-2(1H)-ylidene)-2-methoxyacetamide], for which the mortality at 400 µg/mL in the data set with Helicoverpa armigera is 0%; in the data set on Chilo suppressalis, 0%; with Nilaparvata lugens it was 0%; in the data set on Plutella xylostella, 100%; in the data set with Aphis craccivora, 0%. Besides, the mortality at 25 µg/mL with Plutella xylostella (25 μg/mL) is more than 70%. Besides, the mortality at 100 µg/mL with Plutella xylostella amounted to 100%.
